These results are taken from PMC7248693, “Synthesis and Biological Evaluation of 2-Substituted Benzyl-/Phenylethylamino-4-amino-5-aroylthiazoles as Apoptosis-Inducing Anticancer Agents” (Molecules, 2020).

The term IC50 denotes the midpoint of a concentration-inhibition curve. A high value points to lower potency. Broadly, the melting point is the temperature, or range, at which the solid turns liquid.

One series concerns SK-MEL-1. Description: Antiproliferative activity, MTT assay, SK-MEL-1 cells. Format: cell-based, human. The note with it: for IC50: Homo sapiens, SK-MEL-1, 72 h, MTT, mean ± SE, at least three independent experiments. An excerpt: (§1) In Table 1, we summarize the antiproliferative activity of the 15 novel 2-arylalkylamino-4-amino-5-(3′,4′,5′-trimethoxybenzoyl)thiazole derivatives 8a–o against human leukemia (U-937) and melanoma (SK-MEL-1) tumor cells lines.
(§2) Human U-937 and SK-MEL-1 cell lines were from the German Collection of Microorganisms and Cell Cultures (Braunschweig, Germany; DSMZ No: ACC 5 and ACC 303, respectively). The U-937 is a myeloid leukemia cell line isolated from a histiocytic lymphoma. SK-MEL-1 is a melanoma cell line. Cells were cultured in suspension in RPMI 1640 medium supplemented with 10% (v/v) fetal bovine serum and antibiotics (100 μg mL^−1 streptomycin and 100 U mL^−1 penicillin), at 37 °C in a humidified atmosphere containing 5% CO2. The trypan blue exclusion method was used for counting the cells by a hemocytometer, and cell viability was always greater than 95% in all experiments. Compounds were dissolved in DMSO, and further dilutions were made in culture medium just before use. […] The effects on cell viability of synthetic compounds were determined using a colorimetric assay with the reduction of 3-(4,5-dimethyl-2-thiazolyl-)-2,5-diphenyl-2H-tetrazolium bromide (MTT) as previously described. Briefly, 5 × 10^3 cells were seeded in 96-well microculture plates with increasing concentrations of compounds for 72 h. Then, MTT (0.5 mg mL^−1) was added and incubated for 4 h, and the reaction was stopped with 20% sodium dodecyl sulfate. A570 was used as a measure of cell viability. Concentrations inducing a 50% inhibition of cell growth were determined graphically by nonlinear regression using the curve-fitting algorithm of GraphPad Prism 4.0 (GraphPad Inc La Jolla, CA, USA).
Background: Tetrazolium assays rely on reduction of a dye to a coloured formazan, in cell work by metabolically active cells.

The test system of the next series is U-937. Briefly: Antiproliferative activity, MTT assay, U-937 cells. It is filed as cell-based, human. The following applies: for IC50: Homo sapiens, U-937, 72 h, MTT, mean ± SE, at least three independent experiments; for fold more potent than p-methoxy counterpart 8j: antiproliferative activity, cell line not specified (U-937 and SK-MEL-1).
Source text: as §1, §2

SMILES strings stand for the structures.

For the compound `COc1ccc(-c2nc(N)c(C(=O)c3cc(OC)c(OC)c(OC)c3)s2)cc1` [1a, reference compound], the IC50 was found to be 48.3 ± 4.6 µM with SK-MEL-1 and 34.3 ± 2.2 µM in the series on U-937.
The corresponding values for `COc1ccc(Nc2nc(N)c(C(=O)c3cc(OC)c(OC)c(OC)c3)s2)cc1` [2a, reference compound] are 5.2 ± 1.4 µM and 0.484 ± 0.368 µM.
Regarding `COc1cc(C(=O)c2sc(NCc3ccccc3)nc2N)cc(OC)c1OC` [8a, (4-Amino-2-(benzylamino)thiazol-5-yl)(3,4,5-trimethoxyphenyl)methanone], the melting point fell in the range of 147 to 149 °C. Moreover, the IC50 in the series on SK-MEL-1 was 14.2 ± 9.7 µM. In the series on U-937, this compound gave an IC50 of 21.1 ± 5.1 µM.
Consider `COc1cc(C(=O)c2sc(NCCc3ccccc3)nc2N)cc(OC)c1OC` [8b, (4-Amino-2-(phenethylamino)thiazol-5-yl)(3,4,5-trimethoxyphenyl)methanone], for which the melting point lay in the range of 135 to 138 °C. In the series on SK-MEL-1, this compound displayed an IC50 of 20.5 ± 6.9 µM. This compound also returned an IC50 with U-937 of 19.3 ± 5.6 µM.
For `COc1cc(C(=O)c2sc(NCCCc3ccccc3)nc2N)cc(OC)c1OC` [8c, (4-Amino-2-((3-phenylpropyl)amino)thiazol-5-yl)(3,4,5-trimethoxyphenyl)methanone], the results for the half-maximal inhibitory concentration (IC50) in the series with SK-MEL-1 and in the series with U-937 were 16.7 ± 7 µM and 10.7 ± 2.8 µM, respectively. For the same compound, the “increase in potency relative to 8a and 8b” value with U-937 (U-937 cells) was 2 fold.
As to `COc1cc(C(=O)c2sc(NCc3ccc(F)cc3)nc2N)cc(OC)c1OC` [8d, (4-Amino-2-((4-fluorobenzyl)amino)thiazol-5-yl)(3,4,5-trimethoxyphenyl)methanone], the melting point was in the range of 132 to 134 °C. In addition, the half-inhibitory concentration (IC50) with SK-MEL-1 worked out at 51 ± 1.4 µM. The compound further returned an IC50 in the series on U-937 of 39.1 ± 4.2 µM.
Consider `COc1cc(C(=O)c2sc(NCc3ccc(Cl)cc3)nc2N)cc(OC)c1OC` [8e, (4-Amino-2-((4-chlorobenzyl)amino)thiazol-5-yl)(3,4,5-trimethoxyphenyl)methanone], for which the melting point is 156 to 159 °C. In addition, the concentration for half-maximal inhibition (IC50) in the series with SK-MEL-1 worked out at 8.3 ± 5.5 µM. Besides, the “fold more potent than 8f” value in the series on SK-MEL-1 (SK-MEL-1 cells) was 1.5 fold. In the series on U-937, this compound gave a half-inhibitory concentration (IC50) of 8.7 ± 5.4 µM.
With `COc1cc(C(=O)c2sc(NCc3ccc(Br)cc3)nc2N)cc(OC)c1OC` [8g, (4-Amino-2-((4-bromobenzyl)amino)thiazol-5-yl)(3,4,5-trimethoxyphenyl)methanone], the melting point was 154 to 157 °C. For the same compound, the midpoint of inhibition with SK-MEL-1, the IC50, lay at 15.7 ± 4.9 µM. The compound further yielded a half-maximal inhibitory concentration (IC50) with U-937 of 12.9 ± 3.3 µM.
Regarding `COc1cc(C(=O)c2sc(NCc3ccc(C)cc3)nc2N)cc(OC)c1OC` [8h, (4-Amino-2-((4-methylbenzyl)amino)thiazol-5-yl)(3,4,5-trimethoxyphenyl)methanone], the melting point is 145 to 147 °C. In addition, the concentration for half-maximal inhibition (IC50) with SK-MEL-1 was 19 ± 9.4 µM. The IC50 in the series on U-937 is 15.4 ± 4.9 µM.
Compound `COc1cc(C(=O)c2sc(NCc3cccc(C)c3)nc2N)cc(OC)c1OC` [8i, (4-Amino-2-((3-methylbenzyl)amino)thiazol-5-yl)(3,4,5-trimethoxyphenyl)methanone] registered a melting point of 150 to 152 °C. Besides, in the series on SK-MEL-1, half-maximal inhibition (IC50) was put at 16.7 ± 5.6 µM. The compound further had a 50% inhibitory concentration (IC50) with U-937 of 18.1 ± 6.4 µM.
`COc1ccc(CNc2nc(N)c(C(=O)c3cc(OC)c(OC)c(OC)c3)s2)cc1` [8j, (4-Amino-2-((4-methoxybenzyl)amino)thiazol-5-yl)(3,4,5-trimethoxyphenyl)methanone] displayed a melting point of 131 to 135 °C. In addition, the 50% inhibitory concentration (IC50) with SK-MEL-1 worked out at 22.9 ± 13.7 µM. The compound further displayed an IC50 in the series with U-937 of 23.8 ± 5.2 µM.
`COc1cccc(CNc2nc(N)c(C(=O)c3cc(OC)c(OC)c(OC)c3)s2)c1` [8l, (4-Amino-2-((3-methoxybenzyl)amino)thiazol-5-yl)(3,4,5-trimethoxyphenyl)methanone]: the melting point lay within 125 to 128 °C. The compound further showed a half-maximal inhibitory concentration (IC50) with SK-MEL-1 of 12.4 ± 4.8 µM. Also, in the series on U-937, the IC50 came out at 12.3 ± 6.1 µM and the “fold more potent than p-methoxy counterpart 8j” value is reported as 2 fold.
In the case of `COc1ccccc1CNc1nc(N)c(C(=O)c2cc(OC)c(OC)c(OC)c2)s1` [8m, (4-Amino-2-((2-methoxybenzyl)amino)thiazol-5-yl)(3,4,5-trimethoxyphenyl)methanone], the IC50 with SK-MEL-1 turned out to be 10.4 ± 2.8 µM; in the series with U-937, 13.6 ± 5.3 µM. Moreover, the “fold more potent than p-methoxy counterpart 8j” value in the series on U-937 is on record as 2 fold.
Compound `COc1ccc(CNc2nc(N)c(C(=O)c3cc(OC)c(OC)c(OC)c3)s2)cc1OC` [8n, (4-Amino-2-((3,4-dimethoxybenzyl)amino)thiazol-5-yl)(3,4,5-trimethoxyphenyl)methanone] showed a melting point of 107 to 111 °C. Further, the IC50 in the series with SK-MEL-1 is 32.7 ± 7.7 µM. The IC50 in the series with U-937 was determined as 28.7 ± 10.5 µM.
Compound `COc1cc(C(=O)c2sc(NCc3ccc4c(c3)OCO4)nc2N)cc(OC)c1OC` [8o, (4-Amino-2-((benzo[d][1,3]dioxol-5-ylmethyl)amino)thiazol-5-yl)(3,4,5-trimethoxyphenyl) methanone] returned a melting point of 156 to 158 °C. Further, the half-maximal inhibitory concentration (IC50) with SK-MEL-1 stood at 24.7 ± 1 µM. In addition, 27 ± 0.9 µM corresponded to half-maximal inhibition in the series with U-937 (IC50).
For `COc1cccc2c1C(=O)c1c(O)c3c(c(O)c1C2=O)C[C@@](O)(C(=O)CO)C[C@@H]3O[C@H]1C[C@H](N)[C@H](O)[C@H](C)O1` [Doxorubicin, reference compound], the results for the half-inhibitory concentration (IC50) in the series on SK-MEL-1 and with U-937 were 0.274 ± 0.07 µM and 0.083 ± 0.021 µM, respectively.
The corresponding values for `COc1cc([C@@H]2c3cc4c(cc3[C@@H](O[C@@H]3O[C@@H]5CO[C@@H](C)O[C@H]5[C@H](O)[C@H]3O)[C@H]3COC(=O)[C@H]23)OCO4)cc(OC)c1O` [Etoposide, reference compound] are 6.3 ± 1 µM and 2.1 ± 0.4 µM.
